Assay results as given in patent US5393742A, “Preparation for treating renal disease” (MECT Corporation, priority 1990, dated 1995).
Where two headings read alike, the source gives them in different places.

Legend:
[1] = cited from earlier work
[2] = tested on: cilium cells from the human airway and cilia of frog palatine mucosa; settings: expectorant, by inhalation; cited from earlier work
[3] = tested on: Puromycin aminonucleoside (PAN) induced nephritis; format: in vivo, Male Sprague-Dawley (SD) rats; settings: for Effect on renal disease, nephrosis or nephrotic syndrome (in words): PAN-induced nephritis; for Kidney Moist Weight / Weight Gain Rate / Urinary Protein Content: 3 times a day; for Kidney Moist Weight / Weight Gain Rate: 14 days after PAN
Method: Effect on Puromycin aminonucleoside (PAN) induced nephritis, i.e. PAN induced nephrosis or nephrotic syndrome:
Male Sprague-Dawley (SD) rats weighing 160-180 g were used.
As the nephritis, i.e. nephrosis or nephrotic syndrome, causing substance, PAN (made by Sigma Co., Ltd.) was used. As the test compound, sodium N-acetylneuraminate (made by MECT Corporation) was used.
PAN was intraperitoneally administered in an amount of 80 mg per 1 kg of body weight to rats to cause nephritis, i.e. nephrosis or nephrotic syndrome. Then, the test compound (Groups I, II or III) or physiological saline solution (Group IV) was intraperitoneally administered 3 times a day (morning, noon and evening) for 14 consecutive days immediately after treatment with PAN as follows. As a positive control, methylprednisolone was subcutaneously administered to rats of Group V once a day (noon) for 14 consecutive days immediately after treatment with PAN. Moreover, 3, 6, 9 and 13 days after treatment with PAN, 5 ml water was loaded, and the urine was collected for 6 hours. Fourteen days after treatment with PAN, autopsies were made, the kidneys were extirpated and their moist weights were measured.
Group I: 0.1 mg Sodium N-acetylneuraminate per 1 kg of body weight was administered.
Group II: 0.5 mg Sodium N-acetylneuraminate per 1 kg of body weight was administered.
Group III: 1.0 mg Sodium N-acetylneuraminate per 1 kg of body weight was administered.
Group IV: 2.5 ml Physiological saline solution per 1 kg of body weight was administered.
Group V: 2 mg Methylprednisolone per 1 kg of body weight was administered.
Group VI: Normal rats (no drug was given).
Regarding the results of therapeutic effect for treating renal disease (nephrotic syndrome) of the given NANA compound per Example 1 above, it will be appreciated that the test compound sodium N-acetylneuraminate (Groups I, II and III) was dissolved in physiological saline and intraperitoneally administered, compared to intraperitoneal administration of physiological saline alone (Group IV) and subcutaneous administration of methylprednisolone (Group V).

rat GEC = settings: cited from earlier work

SMILES: CC(=O)N[C@H]1[C@H]([C@H](O)[C@H](O)CO)OC(O)(C(=O)O)C[C@@H]1O (some centres unmarked) [N-acetylneuraminic acid]
- anti vital action ([1]; article [1]): anti vital action
- anti allergic action ([1]; article [4], guinea pigs): anti allergic action
- anti inflammatory action ([1]; articles [2], [3]): anti inflammatory action
- Effect on ciliary motion in the airway [2]: directly promotes ciliary motion in the airway
- Effect on renal disease, nephrosis or nephrotic syndrome (in words) [3]: has an inhibitory effect on nephritis

SMILES: CN(C)c1ncnc2c1ncn2[C@@H]1O[C@H](CO)[C@@H](N)[C@H]1O [PAN, puromycin aminonucleoside]
- Effect on heparan sulfate proteoglycan (HSPG) (rat GEC): reduces heparan sulfate proteoglycan (HSPG)

SMILES: CC(=O)N[C@H]1[C@H]([C@H](O)[C@H](O)CO)OC(O)(C(=O)[O-])C[C@@H]1O.[Na+] (some centres unmarked)
- Kidney Moist Weight ([3]; 0.1 mg/kg i.p.): 0.47 ± 0.02 g/100 g
- Weight Gain Rate ([3]; 0.1 mg/kg i.p.): 127.1 ± 2.0%
- Kidney Moist Weight ([3]; 0.5 mg/kg i.p.): 0.44 ± 0.02 g/100 g
- Weight Gain Rate ([3]; 0.5 mg/kg i.p.): 128.4 ± 1.8%
- Kidney Moist Weight ([3]; 1.0 mg/kg i.p.): 0.42 ± 0.02 g/100 g
- Weight Gain Rate ([3]; 1.0 mg/kg i.p.): 131.3 ± 1.9%
- Urinary Protein Content ([3]; 3rd Day, 0.1 mg/kg i.p.): 14.1 ± 1.1 mg/24 hours
- Urinary Protein Content ([3]; 3rd Day, 0.5 mg/kg i.p.): 11.3 ± 0.8 mg/24 hours
- Urinary Protein Content ([3]; 3rd Day, 1.0 mg/kg i.p.): 5.1 ± 0.4 mg/24 hours
- Urinary Protein Content ([3]; 6th Day, 0.1 mg/kg i.p.): 83.4 ± 8.6 mg/24 hours
- Urinary Protein Content ([3]; 6th Day, 0.5 mg/kg i.p.): 49.1 ± 13.6 mg/24 hours
- Urinary Protein Content ([3]; 6th Day, 1.0 mg/kg i.p.): 50.5 ± 10.7 mg/24 hours
- Urinary Protein Content ([3]; 9th Day, 0.1 mg/kg i.p.): 99.6 ± 14.2 mg/24 hours
- Urinary Protein Content ([3]; 9th Day, 0.5 mg/kg i.p.): 59.9 ± 14.7 mg/24 hours
- Urinary Protein Content ([3]; 9th Day, 1.0 mg/kg i.p.): 51.2 ± 15.6 mg/24 hours
- Urinary Protein Content ([3]; 13th Day, 0.1 mg/kg i.p.): 109.9 ± 12.9 mg/24 hours
- Urinary Protein Content ([3]; 13th Day, 0.5 mg/kg i.p.): 94.5 ± 30.4 mg/24 hours
- Urinary Protein Content ([3]; 13th Day, 1.0 mg/kg i.p.): 77.9 ± 17.9 mg/24 hours
- Systemic side effect (in words) ([3]; PAN rats, weight gain as index of systemic effect): does not show such side effect
- Effect on renal disease, nephrosis or nephrotic syndrome (in words) [3]: has a therapeutic effect on renal disease
